The record followed here is ChEMBL document CHEMBL5316359, “Strophioblachins A-K, Structurally Intriguing Diterpenoids from Strophioblachia fimbricalyx with Potential Anticardiac Hypertrophic Inhibitory Activity” (J Nat Prod, 2023).

The test system of data set [1] is Cardiac muscle cell. The experiment in a line: Anticardiac hypertrophic activity in phenylephrine-induced hypertrophy in neonatal Sprague-Dawley rat cardiomyocyte assessed as decrease in NPPB mRNA expression at 5 to 50 uM preincubated for 12 hrs followed by phenylephrine stimulation and measured after 48 hrs by qRT-PCR analysis. The class given is functional, cell-based. Particulars: dose 5-50 µM, time 60.0 hrs. On the technique in general: Real-time PCR tracks product formation cycle by cycle.

The test system of data set [2] is Cardiac muscle cell. The experiment in a line: Anticardiac hypertrophic activity in phenylephrine-induced hypertrophy in neonatal Sprague-Dawley rat cardiomyocyte assessed as decrease in ANP protein expression at 5 to 50 uM preincubated for 12 hrs followed by phenylephrine stimulation and measured after 48 hrs by Western blot analysis. In kind it is functional, cell-based. Particulars: dose 5-50 µM, time 60.0 hrs. (A western blot detects proteins with antibodies after separation by electrophoresis.)

Data set [3] can be described thus: Cytotoxicity against neonatal Sprague-Dawley rat cardiomyocyte assessed as reduction in ANP expression incubated for 48 hrs by ELISA assay. The class given is toxicity, cell-based, Cardiac muscle cell. Particulars: neonatal rat cardiomyocytes. In general terms: An ELISA detects its analyte on a solid surface through an enzyme-linked reagent.
The test system of data set [4] is Cardiac muscle cell. The experiment in a line: Anticardiac hypertrophic activity in phenylephrine-induced hypertrophy in neonatal Sprague-Dawley rat cardiomyocyte assessed as decrease in NPPA mRNA expression at 5 to 50 uM preincubated for 12 hrs followed by phenylephrine stimulation and measured after 48 hrs by qRT-PCR analysis. The class given is functional, cell-based. Particulars: dose 5-50 µM, time 60.0 hrs.

Active and inactive are the calls of the source. The calls are words filed in the database; no cut-off is given here.

A word on the IC50: it is the point on the concentration scale where inhibition reaches its midpoint.

For the molecule `COC(=O)c1cc2c(cc1OC)[C@]1(C)CCC(=O)C(C)(C)C1=C(O)C2=O`, the Activity entry with Cardiac muscle cell [1] and in the data set with Cardiac muscle cell [4] was “Dose-Dependent Effect” each time. Besides, in the data set with Cardiac muscle cell [2], the outcome was Active. Moreover, the IC50 at 48 h in data set [3] is 52.3 µM.

`C=C[C@@]12C=C(C)C(=O)C=C1[C@]1(C)CC[C@@H](O)C(C)(C)[C@H]1CC2`: the Activity result in the data set with Cardiac muscle cell [1] and in the data set on Cardiac muscle cell [4] was “Dose-Dependent Effect” throughout. In the data set with Cardiac muscle cell [2], the result was Active. In data set [3], the IC50 at 48 h amounted to 41.8 µM.
